Reference: patent US20230329236A1, “HERBICIDAL PYRIMIDINE DERIVATIVES” (MoA Technology Limited, priority 2020, published 2023)

Assays:
Conditions in all cases: 336 h, Table 3, post-emergence, 14±1 days post application
[1] = tested on: Echinochloa crus-gaffi (ECHCG); assay: Post-emergence glasshouse test, visual injury, ECHCG; type: in vivo, Echinochloa crus-galli
Procedure: (§1) Seeds of a variety of test species are grown in a sandy loam soil mixture, Lolium multiflorum (LOLMU), Amaranthus retroflexus (AMARE), Echinochloa crus-gaffi (ECHCG), Veronica persica (VERPE), Glycine max (GLXMA), Oryza sativa (ORYSA), Zea mays (ZEAMX), spring wheat (TRZAS), Ipomoea hederacea (IPOHE), Ipomoea purpurea (PHBPU), Stellaria media (STEME), Solanum nigrum (SOLNI), Digitaria sanguinalis (DIGSA), Setaria italica (SETIT), Alopecurus myosuroides (ALOMY) and Avena fatua (AVEFA).
(§2) After sowing, at growth stage BBCH 12-14 (post-emergence), the plants are sprayed with an aqueous spray solution derived from the formulation of the technical active ingredient in acetone/water (50:50) solution containing 0.5% Tween 20 (polyoxyethlyene sorbitan monolaureate, CAS RN 9005-64-5). The test compounds are applied at the required concentration of active ingredient in g/ha. The test plants are then grown in a glasshouse under controlled environmental conditions and watered regularly as required. After 14±1 days post application (for post-emergence test), the test is evaluated by assessing the percentage damage caused to the plants in comparison with the untreated plots. The biological activities for post-emergence testing are shown below (Table 3 and Table 4) as a % visual injury.

Veronica persica (VERPE) = assay: Post-emergence glasshouse test, visual injury, VERPE; type: in vivo
Procedure: as §1, §2

[2] = tested on: Lolium multiflorum (LOLMU); assay: Post-emergence glasshouse test, visual injury, LOLMU; type: in vivo
Procedure: as §1, §2

[3] = tested on: Amaranthus retroflexus (AMARE); assay: Post-emergence glasshouse test, visual injury, AMARE; type: in vivo
Procedure: as §1, §2

Row | SMILES | pest or weed control at 500 g/ha [1] [%] | pest or weed control at 500 g/ha (Veronica persica (VERPE)) [%] | pest or weed control at 500 g/ha [2] [%] | pest or weed control at 500 g/ha [3] [%] | pest or weed control at 125 g/ha [1] [%] | pest or weed control at 125 g/ha (Veronica persica (VERPE)) [%] | pest or weed control at 125 g/ha [2] [%] | pest or weed control at 125 g/ha [3] [%] | other results
1 | CCN1CCN(c2ncc(-c3cc(C)no3)c(C(C)C)n2)CC1 [Compound 63] | 50 | 0 | 30 | 70 |  |  |  |  | 
2 | COCCCNc1ncc(-c2cc(C)no2)c(-c2ccc(C)o2)n1 [Compound 27] | 20 | 50 | 0 | 70 |  |  |  |  | 
3 | Cc1cc(-c2cnc(NCc3ccccc3F)nc2C2CC2)on1 [Compound 81] | 80 | 80 | 30 | 98 |  |  |  |  | 
4 | Cc1cc(-c2cnc(N3CCC(O)C(C)C3)nc2C2CC2)on1 (centres unmarked) [Compound 60] | 30 | 60 | 70 | 60 |  |  |  |  | 
5 | Cc1cc(-c2cnc(NC3CCCCC3)nc2C(C)C)on1 [Compound 7] |  |  |  |  | 80 | 60 | 20 | 80 | pest or weed control at 250 g/ha [1]: 100%; pest or weed control at 250 g/ha (Veronica persica (VERPE)): 100%; pest or weed control at 250 g/ha [2]: 20%; pest or weed control at 250 g/ha [3]: 100%
6 | Cc1cc(-c2cnc(NC3CCCc4sc(Cl)cc43)nc2C(C)C)on1 (centres unmarked) [Compound 3] |  |  |  |  | 60 | 10 | 0 | 60 | 
7 | Cc1cc(-c2cnc(N3CCN(S(=O)(=O)N(C)C)CC3)nc2C2CC2)on1 [Compound 53] | 50 | 0 | 20 | 20 |  |  |  |  | 
8 | Cc1cc(-c2cnc(N3Cc4ccccc4C3=N)nc2C(C)C)on1 [Compound 121] |  |  |  |  | 20 | 0 | 0 | 30 | 
9 | Cc1cc(-c2cnc(N(C)C3CCCC3)nc2C(F)(F)F)on1 [Compound 112] |  |  |  |  | 0 | 0 | 20 | 20 | 
10 | Cc1cc(-c2cnc(NCc3ccccc3F)nc2C(F)(F)F)on1 [Compound 113] |  |  |  |  | 20 | 0 | 0 | 30 | 
11 | Cc1cc(-c2cnc(NCc3ccc(F)cc3)nc2C(C)C)on1 [Compound 93] |  |  |  |  | 80 | 100 | 60 | 100 | 
12 | COc1ccc(CCNc2ncc(-c3cc(C)no3)c(C3CC3)n2)cc1OC [Compound 78] | 80 | 99 | 40 | 95 |  |  |  |  | 
13 | Cc1cc(-c2cnc(NCc3ccc(F)cn3)nc2C(C)C)on1 [Compound 96] |  |  |  |  |  |  |  |  | pest or weed control at 62 g/ha [1]: 40%; pest or weed control at 62 g/ha (Veronica persica (VERPE)): 50%; pest or weed control at 62 g/ha [2]: 0%; pest or weed control at 62 g/ha [3]: 50%
14 | Cc1cc(-c2cnc(NCc3ccc(Cl)cc3)nc2C(C)C)on1 [Compound 102] |  |  |  |  | 80 | 100 | 40 | 100 | pest or weed control at 62 g/ha [1]: 80%; pest or weed control at 62 g/ha (Veronica persica (VERPE)): 80%; pest or weed control at 62 g/ha [2]: 20%; pest or weed control at 62 g/ha [3]: 98%
15 | Cc1cc(-c2cnc(NC3CCC3)nc2C(C)C)on1 [Compound 14] | 100 | 100 | 50 | 100 |  |  |  |  | 
16 | Cc1cc(-c2cnc(NC3CCc4sc(Cl)cc43)nc2C(C)C)on1 (centres unmarked) [Compound 4] |  |  |  |  | 50 | 98 | 0 | 95 | 
17 | CCc1nc(NC2CCCC2)ncc1-c1cc(C)no1 [Compound 103] |  |  |  |  | 30 | 60 | 20 | 70 | 
18 | Cc1cc(-c2cnc(NCCn3nccc3C)nc2C(C)C)on1 [Compound 41] | 60 | 50 | 30 | 95 |  |  |  |  | 
19 | Cc1cc(-c2cnc(N(C)C)nc2C(C)C)on1 [Compound 82] |  |  |  |  |  |  |  |  | pest or weed control at 250 g/ha [1]: 70%; pest or weed control at 250 g/ha (Veronica persica (VERPE)): 20%; pest or weed control at 250 g/ha [2]: 30%; pest or weed control at 250 g/ha [3]: 0%

Row | SMILES | pest or weed control at 500 g/ha [1] [%] | pest or weed control at 500 g/ha (Veronica persica (VERPE)) [%] | pest or weed control at 500 g/ha [2] [%] | pest or weed control at 500 g/ha [3] [%] | pest or weed control at 125 g/ha [1] [%] | pest or weed control at 125 g/ha (Veronica persica (VERPE)) [%] | pest or weed control at 125 g/ha [2] [%] | pest or weed control at 125 g/ha [3] [%] | other results
20 | Cc1cc(-c2cnc(N3CCCCCC3)nc2C(C)C)on1 [Compound 49] | 60 | 30 | 0 | 50 |  |  |  |  | 
21 | CC(=O)N1CCN(c2ncc(-c3cc(C)no3)c(C3CC3)n2)CC1 [Compound 50] | 50 | 0 | 0 | 60 |  |  |  |  | 
22 | Cc1cc(-c2cnc(NCc3cccc(Cl)c3)nc2C(C)C)on1 [Compound 117] |  |  |  |  | 70 | 70 | 30 | 70 | 
23 | Cc1cc(-c2cnc(N3CCN(c4ncccn4)CC3)nc2C(C)(C)C)on1 [Compound 61] | 0 | 0 | 0 | 60 |  |  |  |  | 
24 | Cc1cc(-c2cnc(N3CCC(O)CC3)nc2C2CC2)on1 [Compound 71] | 60 | 40 | 0 | 90 |  |  |  |  | 
25 | CCOCCCNc1ncc(-c2cc(C)no2)c(C(C)(C)C)n1 [Compound 40] | 30 | 0 | 0 | 70 |  |  |  |  | 
26 | Cc1cc(-c2cnc(NC(C)C)nc2C(C)C)on1 [Compound 83] |  |  |  |  | 70 | 70 | 40 | 95 | pest or weed control at 250 g/ha [1]: 100%; pest or weed control at 250 g/ha (Veronica persica (VERPE)): 100%; pest or weed control at 250 g/ha [2]: 50%; pest or weed control at 250 g/ha [3]: 98%
27 | Cc1cc(-c2cnc(NCc3ccncc3)nc2-c2ccc(C)o2)on1 [Compound 21] | 20 | 90 | 0 | 50 |  |  |  |  | 
28 | Cc1cc(-c2cnc(N3CCN(c4ncccn4)CC3)nc2C(C)C)on1 [Compound 70] | 20 | 0 | 0 | 80 |  |  |  |  | 
29 | Cc1cc(-c2cnc(NCc3cccc(F)c3)nc2C2CC2)on1 [Compound 85] |  |  |  |  | 80 | 50 | 30 | 95 | pest or weed control at 250 g/ha [1]: 100%; pest or weed control at 250 g/ha (Veronica persica (VERPE)): 100%; pest or weed control at 250 g/ha [2]: 40%; pest or weed control at 250 g/ha [3]: 100%
30 | Cc1cc(-c2cnc(NCc3cccnc3)nc2-c2ccc(C)o2)on1 [Compound 22] | 50 | 60 | 0 | 60 |  |  |  |  | 
31 | COc1ccc(CNc2ncc(-c3cc(C)no3)c(C3CC3)n2)cc1OC [Compound 52] | 70 | 70 | 40 | 80 |  |  |  |  | 
32 | Cc1cc(-c2cnc(N3CCCCC3)nc2-c2ccc(C)o2)on1 [Compound 79] | 60 | 0 | 30 | 90 |  |  |  |  | 
33 | Cc1cc(-c2cnc(NCc3ccccn3)nc2C(C)C)on1 [Compound 39] | 20 | 80 | 0 | 70 |  |  |  |  | 
34 | Cc1cc(-c2cnc(NCCc3c(C)noc3C)nc2C(C)C)on1 [Compound 62] | 50 | 70 | 40 | 70 |  |  |  |  | 
35 | Cc1cc(-c2cnc(NC3CCC3)nc2C2CC2)on1 [Compound 12] |  |  |  |  |  |  |  |  | pest or weed control at 250 g/ha [1]: 90%; pest or weed control at 250 g/ha (Veronica persica (VERPE)): 100%; pest or weed control at 250 g/ha [2]: 30%; pest or weed control at 250 g/ha [3]: 100%
36 | Cc1cc(-c2cnc(NC3CCCC3)nc2C)on1 [Compound 92] |  |  |  |  | 50 | 70 | 60 | 90 | 
37 | Cc1cc(-c2cnc(NCCc3c(C)noc3C)nc2C(C)(C)C)on1 [Compound 68] | 0 | 0 | 0 | 80 |  |  |  |  | 
